According to patent US20250136563A1, “THIADIAZOLONE DERIVATIVES USEFUL AS AMPK ACTIVATOR” (Betagenon AB, priority 2021, published 2025):
“Also recorded” adds a separate entry of the source. Counter-ions that a name gives are not always drawn. Like-named read-outs stand apart in the source and are kept apart here. Each block holds one compound with its values, some of them ahead of it.

Tests used:
[1] = Single dose oral pharmacokinetic study of Compounds 5, 6, 7, 9, 10, 13, 14, 16 and 17 in Sprague Dawley rats; format: in vivo
Protocol: 10.0 mL of 2% w/v methyl cellulose solution in phosphate buffer (pH 7.5) was added to a 100 mL conical flask along with 1 g of 2 mm glass beads. The solution was vigorously stirred on a magnetic stirrer. 100 mg of Compound 1 was slowly added to the solution, and the solution was vigorously stirred for approximately 1 h. The pH of the formulation was measured to be 7.49. Each formulation was freshly prepared prior to administration to the animals. The final concentration of Compound 1 in of the formulation was 10 mg/mL. The formulation was administered at 5 mL/kg body weight. […]
Adult healthy male Sprague Dawley rats aged 8 to 10 weeks were used for experimentation after a minimum three days of acclimatization. Fed state animals were administered the formulation of Compound 1 or Compound 3 orally via gavage at a dose of 50 mg/kg or 65 mg/kg body weight, respectively.
Under mild isoflurane anesthesia, blood specimens were collected by retro-orbital puncture method using capillary tubes into pre-labeled tubes containing anticoagulant (K2EDTA: 2 mg/mL blood) during the next 72 hours post-dosing, as detailed in Table 6. For blood sampling at multiple time points, the right and left eyes were used alternatively. Collected blood specimens were centrifuged at 6000 rpm, 4° C. for 10 minutes and the plasma samples were separated and stored at −80° C. until analysis.
Formulations were prepared in accordance with the method described in Example 19.
Doses equivalent to 50 mg/kg of Compound 1 were selected for comparison of equimolar doses.
The administration and blood sampling were performed as described in Example 19.
The results for the single dose oral pharmacokinetic study in rats are tabulated in Tables 7 and below and are shown graphically in FIG. 3. In Table 7, the Cmax, Tmax, AUClast, AUCinf, AUCextrap and T1/2 values are for 4-chloro-N-[2-[(4-chlorophenyl)methyl]-3-oxo-1,2,4-thiadiazol-5-yl]benzamide (Compound 1), which was detected following the administration of the compounds.

[2] = mice; Das et al. 2019; cited from earlier work
[3] = Stability in HCl buffer (pH 1.20), 37° C.; format: physicochemical; settings: for % remaining compared to 0.0 min: HCl buffer pH 1.20, 37° C.
Protocol: 5 μM solutions of Compound 1 and Compound 4 (i.e. the citric acid salt of Compound 3) in HCl buffer (pH: 1.20) were prepared with 5 mM DMSO stock solutions.

[4] = system: AMPK; test: Activation of AMPK: Western blot of p-T172 AMPKα in INS-1E insulinoma cells; format: cell-based; settings: for ratio between p-T172 AMPK and non-phosphorylated AMPK: INS-1E cells, 4 h, control 1.00
Protocol: INS-1E cells were cultivated as described in Steneberg et al., JCI Insight. 2018; 3(12):e99114. https://doi.org/10.1172/jci.insight.99114, using 5% instead of 10% fetal bovine serum when plated for treatment.
Compound 3 was dissolved at 10 mM in DMSO and frozen at −20° C.
The INS-1E cells were treated in serum free medium with increasing doses of Compound 3 for 4 hours in accordance with the methods described in Steneberg et al., JCI Insight. 2018; 3(12):e99114. https://doi.org/10.1172/jci.insight.99114.
Western blot analysis of the INS-1E cells was performed as described in Steneberg et. al., JCI Insight. 2018; 3(12):e99114. https://doi.org/10.1172/jci.insight.99114. The cell lysates were passed through a 30-gauge needle, ˜8-times and centrifuged for 10 min at +4° C. at 14000 rpm. Quantified values for AMPKα, and phosphorylated-T172 AMPKα, were normalized toward the quantified values for β-Actin.

[5] = Single dose oral pharmacokinetic study of Compounds 1 and 3 in Sprague Dawley rats; format: in vivo; settings: equimolar doses
Protocol: 10.0 mL of 2% w/v methyl cellulose solution in phosphate buffer (pH 7.5) was added to a 100 mL conical flask along with 1 g of 2 mm glass beads. The solution was vigorously stirred on a magnetic stirrer. 100 mg of Compound 1 was slowly added to the solution, and the solution was vigorously stirred for approximately 1 h. The pH of the formulation was measured to be 7.49. Each formulation was freshly prepared prior to administration to the animals. The final concentration of Compound 1 in of the formulation was 10 mg/mL. The formulation was administered at 5 mL/kg body weight.
6 mL of 2% w/v methyl cellulose solution in phosphate buffer (pH 7.5) was added to a 25 mL of conical flask together with 1 g of 2 mm glass beads. The solution was vigorously stirred on a magnetic stirrer. 78 mg of Compound 3 was slowly added to the solution, and the solution was vigorously stirred for approximately 1 h. The pH of the formulation was measured to be 7.41. […]
The results for the single dose oral pharmacokinetic study in rats are tabulated in Tables 5 and 6 below and are shown graphically in FIG. 2. In Table 5, the Cmax, Tmax, AUClast, AUCinf, AUCextrap, T1/2 and MRTlast values are for 4-chloro-N-[2-[(4-chlorophenyl)methyl]-3-oxo-1,2,4-thiadiazol-5-yl]benzamide (Compound 1), which was detected following the administration of both Compounds 1 and 3.

[6] = Stability in buffers pH 1.20, 7.40 and 9.20 (Examples 26 and 27)
[7] = for % remaining after 15 min / % remaining after 30 min: buffer; for % remaining after 15 min: 0.25 h; for % remaining after 30 min: 0.5 h
[8] = analyte Compound 1 in plasma, oral, dose equivalent to 50 mg/kg of Compound 1

- Plasma Concentration of Compound 1 ([1]; 0.00 h post-dose, oral, equivalent to 50 mg/kg of Compound 1): 0.00 µg/mL
- Plasma Concentration of Compound 1 ([1]; 1.00 h post-dose): 76.70 µg/mL
- Plasma Concentration of Compound 1 ([1]; 4.00 h post-dose): 106.37 µg/mL
- Plasma Concentration of Compound 1 ([1]; 8.00 h post-dose): 100.53 µg/mL
- Plasma Concentration of Compound 1 ([1]; 24.00 h post-dose): 26.77 µg/mL
- AUCextrap [1, 8]: 17.81%
- AUCinf [1, 8]: 2120.39 µg·h/mL
- AUClast [1, 8]: 1745.15 µg·h/mL
- Cmax [1, 8]: 114.03 µg/mL
- T1/2 [1, 8]: 9.63 h
- Tmax [1, 8]: 5.33 h
Compound: 2-({[5-(4-chlorobenzamido)-2-[(4-chlorophenyl)methyl]-3-oxo-1,2,4-thiadiazolidin-4-yl]methoxy}carbonyl)-1-methylpyrrolidine [Compound 10]

- % remaining compared to 0.0 min ([3]; 0.0 min): 100.00%
- % remaining compared to 0.0 min ([3]; 15 min): 71.32%
- % remaining compared to 0.0 min ([3]; 30 min): 63.05%
- % remaining compared to 0.0 min ([3]; 60 min): 58.77%
- % remaining compared to 0.0 min ([3]; 120 min): 43.04%
Compound: O=C(Nc1nc(=O)n(Cc2ccc(Cl)cc2)s1)c1ccc(Cl)cc1 [Compound 1, 4-chloro-N-[2-[(4-chlorophenyl)methyl]-3-oxo-1,2,4-thiadiazol-5-yl]benzamide, reference compound]
- treating pain (in words) [2]: effective at treating pain

- increase in systemic exposure of Compound 1 after oral Compound 3 versus oral Compound 1 [5]: ten-fold
- % remaining after 15 min ([6]; buffer pH 1.2): 97%
- % remaining after 30 min ([6]; buffer pH 1.2): 83%
- % remaining after 15 min ([6]; buffer pH 7.4): 46%
- % remaining after 30 min ([6]; buffer pH 7.4): 16%
- % remaining compared to 0.0 min ([3]; 0.0 min): 100.00%
- % remaining compared to 0.0 min ([3]; 15 min): 96.92%
- % remaining compared to 0.0 min ([3]; 30 min): 83.74%
- % remaining compared to 0.0 min ([3]; 60 min): 86.54%
- % remaining compared to 0.0 min ([3]; 120 min): 88.31%
- stability in acidic solutions (in words) ([3]; pH 1.2): greater stability than Compound 1
Compound: CN(C)CC(=O)OCn1c(=O)n(Cc2ccc(Cl)cc2)s/c1=N\C(=O)c1ccc(Cl)cc1 [Compound 3, Dimethylamino-Acetic Acid 5-[(Z)-4-chloro-benzoylimino]-2-(4-chloro-benzyl)-3-oxo-[1,2,4]thiadiazolidin-4-ylmethyl Ester]
- ratio between p-T172 AMPK and non-phosphorylated AMPK ([4]; 1.25 μM): 1.24
- ratio between p-T172 AMPK and non-phosphorylated AMPK ([4]; 2.5 μM): 2.24
- ratio between p-T172 AMPK and non-phosphorylated AMPK ([4]; 5 μM): 5.99
- phosphorylation of AMPK (in words) ([4]; cultured INS-1E cells): increases phosphorylation of AMPK in a dose-dependent manner; also recorded: increases phosphorylated-T172 AMPK in a dose-dependent manner

- % remaining after 15 min ([6]; buffer pH 1.2): 83%
- % remaining after 30 min ([6]; buffer pH 1.2): 86%
- % remaining after 15 min ([6]; buffer pH 7.4): 33%
- % remaining after 30 min ([6]; buffer pH 7.4): 33%
Compound: NCCCCC(N)C(=O)OCN1C(=O)N(Cc2ccc(Cl)cc2)SC1NC(=O)c1ccc(Cl)cc1.O=C(O)C(F)(F)F.O=C(O)C(F)(F)F (centres unmarked) [Compound 6, 6-{[5-(4-chlorobenzamido)-2-[(4-chlorophenyl)methyl]-3-oxo-1,2,4-thiadiazolidin-4-yl]methoxy}-6-oxohexane-1,5-bis(aminium) di-trifluoroacetate]

- % remaining after 15 min ([6]; buffer pH 1.2): 100%
- % remaining after 30 min ([6]; buffer pH 1.2): 100%
- % remaining after 15 min ([6]; buffer pH 7.4): 46%
- % remaining after 30 min ([6]; buffer pH 7.4): 13%
Compound: NCC(=O)OCn1c(=O)n(Cc2ccc(Cl)cc2)s/c1=N\C(=O)c1ccc(Cl)cc1 [Compound 9, Trifluoroacetate]

- % remaining after 15 min ([6]; buffer pH 1.2): 76%
- % remaining after 30 min ([6]; buffer pH 1.2): 82%
- % remaining after 15 min ([6]; buffer pH 7.4): 0%
- % remaining after 30 min ([6]; buffer pH 7.4): 0%
- Percentage of Compound 17 remaining compared to 0 minutes ([6]; pH 1.20, 0.0 min): 100.00
- Percentage of Compound 17 remaining compared to 0 minutes ([6]; pH 1.20, 15.0 min): 76.19
- Percentage of Compound 17 remaining compared to 0 minutes ([6]; pH 1.20, 30.0 min): 82.37
- Percentage of Compound 17 remaining compared to 0 minutes ([6]; pH 1.20, 60.0 min): 73.33
- Percentage of Compound 17 remaining compared to 0 minutes ([6]; pH 1.20, 120.0 min): 79.04
- Percentage of Compound 17 remaining compared to 0 minutes ([6]; pH 7.40, 0.0 min): 100.00
- Percentage of Compound 17 remaining compared to 0 minutes ([6]; pH 7.40, 15.0 min): 0.13
- Percentage of Compound 17 remaining compared to 0 minutes ([6]; pH 7.40, 30.0 min): 0.39
- Percentage of Compound 17 remaining compared to 0 minutes ([6]; pH 7.40, 60.0 min): 0.47
- Percentage of Compound 17 remaining compared to 0 minutes ([6]; pH 7.40, 120.0 min): 2.33
- stability at pH 7.40 and above (in words) ([6]; pH 7.40 / higher pH, Trifluoroacetate): degrade rapidly; also recorded: very low
- Percentage of Compound 17 remaining compared to 0 minutes ([6]; pH 9.20, 0.0 min): 100.00
- Percentage of Compound 17 remaining compared to 0 minutes ([6]; pH 9.20, 15.0 min): 0.00
- Percentage of Compound 17 remaining compared to 0 minutes ([6]; pH 9.20, 30.0 min): 0.00
- Percentage of Compound 17 remaining compared to 0 minutes ([6]; pH 9.20, 60.0 min): 0.00
- Percentage of Compound 17 remaining compared to 0 minutes ([6]; pH 9.20, 120.0 min): 0.00
Compound: NC(CC(=O)O)C(=O)OCn1c(=O)n(Cc2ccc(Cl)cc2)s/c1=N/C(=O)c1ccc(Cl)cc1 (centres unmarked) [Compound 17, Trifluoroacetate]
- stability at pH 1.2 (in words) ([6]; pH 1.2, Trifluoroacetate): greatest stability; also recorded: relatively stable

Compound: CN(C)C(=N)N=C(N)N [metformin]
- treating pain (in words) [2]: effective at treating pain

- % remaining after 15 min ([7]; pH 1.2): 78%
- % remaining after 15 min ([7]; pH 7.4): 0%
- % remaining after 30 min ([7]; pH 1.2): 77%
- % remaining after 30 min ([7]; pH 7.4): 0%
- stability at pH 1.2 (in words) ([7]; pH 1.2): relatively stable
- stability at pH 7.40 and above (in words) ([7]; pH 7.4): degrade rapidly
Compound: [azaniumyl({[(4S)-4-azaniumyl-4-[(2-{[5-(4-chlorobenzamido)-2-[(4-chlorophenyl)methyl]-3-oxo-1,2,4-thiadiazolidin-4-yl]methoxy}-2-oxoethyl)carbamoyl]butyl]amino})methylidene]azanium Trichloride [Compound 23]
